Key:
[1] = system: H929 myeloma cells with MDSC; assay: Myeloma cytotoxicity assay with added MDSC, live cell imaging; format: cell-based, human; conditions: B7-H3 TriKE and NK cells, 48 hours live cell imaging
Experimental: FIGS. 10A-10D illustrate the effect B7-H3-TriKE on MDSC developed from CD33+ myeloid cells from healthy donors, when incubated with myeloma cells at 1:100 ratio. FIG. 10A is a graph showing MDSC (CD14+CD11b+) expression of B7-H3. FIG. 10B is a graph showing cell survival as measured by flow cytometry. FIG. 10C is a plot of live, CD14+ cells FIG. 10D is a graph illustrating H929 growth as measured over 48 hours by live cell imaging.
MDSC were developed from CD33+ myeloid cells from healthy donors using IL-6 and GM-CSF or by incubating them with myeloma cells at 1:100 ratio for seven days.

U266 cells = assay: IncuCyte Zoom NK cell killing of U266; format: cell-based, human; conditions: E:T 2:1 and 4:1
From the text: (§1) FIGS. 7A-7B illustrate the ability of peripheral blood NK cells with or without B7-H3-TriKE to kill myeloma cells in live imaging IncuCyte Zoom assays. FIG. 7A is a graph showing the effects with effector:target (E:T) ratios of 2:1 and 4:1 on MM1S cells. FIG. 7B is a graph showing the effects with effector:target (E:T) ratios of 2:1 and 4:1 on U266 cells.
as §1, with “8A-8D” for “7A-7B”, “8A is a graph showing the effects with effector:target (E:T) ratios of 2:1 and 4:1 on H929 cells. FIG. 8B” for “7A”, “8C is a graph showing the effects with effector:target (E:T) ratios of 2:1 and 4:1 on RPMI-8226 cells. FIG. 8D” for “7B”
FIGS. 9A-9D illustrate the efficacy of B7-H3-TriKE with the proteasome inhibitor bortezomib (10 nM) and the immunomodulatory drug lenalidomide (5 μM). FIG. 9A is a graph showing the effect of the combination therapy on H929 cells after 48 hours. FIG. 9B is a graph showing the effect of the combination therapy on RPMI-8226 cells after 48 hours. FIG. 9C is a graph showing the effect of the combination therapy on MM1S cells after 48 hours. […]

In the case of “B7-H3 TriKE: camelid nanobodies targeting CD16 and B7-H3 joined by IL-15 and two linkers; sequence table equates the name with cam1615B7-H3”, the “MDSC-enhanced myeloma cell growth” value [1] is reported as “overcome” and the “NK cell killing of U266” value (U266 cells) is reported as “significantly enhanced killing”.

— patent US20250145715A1, “B7-H3 TARGETING FUSION PROTEINS AND METHODS OF USE THEREOF” (GT Biopharma, Inc., priority 2021, published 2025)
